According to patent publication US20220242846A1, “ISOINDOLINONE COMPOUNDS” (Monte Rosa Therapeutics AG, priority 2019, published 2022):

target: T1, Full length wild-type cereblon CRBN (Homo sapiens, UniProt Q96SW2); experiment: Fluorescence polarization (FP) assay indicating cereblon binding; conditions: CRBN 80.0 nM, fluorescent probe 5 nM, FP measured after 12 hours; read-out: rFP IC50
T1 construct: Full length wild-type cereblon CRBN (80.0 nM, 10 μL) was incubated in assay buffer
Outline: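 Full-length wild-type human CRBN (80.0 nM) preincubated 30 min at room temperature with compound (12-point curve, 300-0.937 or 3000-9.3 nM) in HEPES pH 8.0, NaCl, TCEP, Tween 20. Thalidomide-based Cy5-type probe then added at 5 nM final; FP read after 12 h (ex 590, em 675 nm), normalized to DMSO, IC50 derived.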

T1 sequence (Q96SW2 whole entry): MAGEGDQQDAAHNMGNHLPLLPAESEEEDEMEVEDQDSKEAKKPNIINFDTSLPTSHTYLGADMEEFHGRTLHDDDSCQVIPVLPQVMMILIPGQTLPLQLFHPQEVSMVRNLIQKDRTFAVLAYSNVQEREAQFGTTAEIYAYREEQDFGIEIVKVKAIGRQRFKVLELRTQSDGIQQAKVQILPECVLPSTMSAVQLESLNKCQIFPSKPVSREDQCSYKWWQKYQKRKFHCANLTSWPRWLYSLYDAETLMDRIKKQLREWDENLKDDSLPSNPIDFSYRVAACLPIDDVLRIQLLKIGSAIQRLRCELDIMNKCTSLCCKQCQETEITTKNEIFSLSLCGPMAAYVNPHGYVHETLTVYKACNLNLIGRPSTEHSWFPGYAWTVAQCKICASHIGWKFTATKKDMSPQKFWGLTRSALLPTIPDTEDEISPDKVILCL

Row | SMILES | IC50
1 | Cc1cc(C)c(NC(=O)NCc2ccc3c(c2)C(=O)N(C2CCC(=O)NC2=O)C3)cc1Cl (stereo not shown) [Compound 85] | 214 nM
2 | Cc1ccc(NC(=O)NCc2ccc3c(c2)C(=O)N(C2CCC(=O)NC2=O)C3)c(Cl)c1Cl (stereo not shown) [Compound 87] | 278 nM
3 | O=C1CCC(N2Cc3ccc(CNC(=O)Nc4cccc(CN5CCOCC5)c4)cc3C2=O)C(=O)N1 (stereo not shown) [Compound 105] | 295 nM
4 | Cc1c(Cl)cc(NC(=O)NCc2ccc3c(c2)C(=O)N(C2CCC(=O)NC2=O)C3)cc1CC1COCOC1 (stereo not shown) [Compound 132] | 381 nM
5 | Cc1c(Cl)cc(NC(=O)NCc2ccc3c(c2)C(=O)N(C2CCC(=O)NC2=O)C3)cc1CN(C)C (stereo not shown) [Compound 75] | 284 nM
6 | Cc1ccc(NC(=O)NCc2ccc3c(c2)C(=O)N(C2CCC(=O)NC2=O)C3)cc1Cl (stereo not shown) [Compound 8] | 468 nM
7 | Cc1c(Cl)cc(NC(=O)NCc2ccc3c(c2)C(=O)N(C2CCC(=O)NC2=O)C3)cc1CN1CCOCC1 (stereo not shown) [Compound 82] | 372 nM

target: T2, IKZF1 (Homo sapiens, UniProt Q13422); experiment: Selectivity determination by Western Blot assay in MM1S cells: IKZF1; assay type: cell-based; parameters: key: A represents a no degradation observed at 30 μM; B represents trace degradation at 30 μM (below 20%); C represents weak degradation at 30 μM (below 50%); D represents degradation at 30 μM (>90%); E represents degradation at 3 μM (>90%); F represents degradation at 0.3 μM (>90%); conditions: MM1S cells, 0.3, 3 and 30 μM, 6 hours
T2 construct: MM1S cells were purchased from ATCC (cat. Number CRL-2974); endogenous in cells; host or cells: MM1S (ATCC CRL-2974)
Procedure: (§1) CK1alpha/Ikaros/Aiolos/ZFP91 Selectivity determination by Western Blot Assay
(§2) MM1S cells were purchased from ATCC (cat. Number CRL-2974), sub-cultured in 90% RPMI 1640 with 10% FBS, supplemented with 1× P/S and incubated at 37° C., 5% CO2. Compounds were stored as 10 mM DMSO stock. For the assay, MM1S cells (3 million cells/well) were plated in 6-well plates and incubated over night. Cells were treated with respective compounds using a serial dilution: 0.3 μM, 3 μM and 30 μM as well as a vehicle only (DMSO) control for 6 hours. Media with suspension cells was subsequently transferred to 15 mL conical tubes, wells rinsed twice with ice-cold PBS and merged with cell suspension in respective 15 mL conical tube. Cells were spinned down, supernatant aspirated, pellets resuspended in ice-cold PBS and transferred to microtubes. Cells were spinned down, supernatant aspirated and pellets resuspended in 120 μL RIPA lysis buffer supplemented with protease and phosphatase inhibitors. Cell lysates were incubated on ice for 20 minutes followed by centrifugation at >20,000×g for 5 mM. Supernatants were transferred to fresh microtubes and stored at −80° C. Total protein concentration was determined using a BCA assay with a BSA standard curve and concentration of all samples was adjusted to 1 mg/mL. 25 μL 4× LDS sample buffer supplemented with 100 mM DTT was added to 75 μL sample. Samples were centrifuged (8,000×g, 1 min) and incubated at 95° C. for […] followed by another centrifugation step (8,000×g, 1 mM). 20 μL of each sample was loaded on a 4-12% gel alongside a protein molecular weight marker. Gels were run in the presence of MOPS buffer at 80 Volts for […], followed by 120 Volts for 1.5 h and proteins subsequently transferred onto nitrocellulose membranes at 20 Volts for 7 mM using an iBlot2 Gel Transfer Device. Membranes were then cut horizontally into two pieces, covering 80-50 kDa and 50-25 kDa. Blocking the membranes was performed by gently shaking in 5% (w/v) skim milk in TSB-T for 1 hr at room temperature. All primary antibodies were used at a 1/1000 in 5% (w/v) BSA dissolved in TBST and incubated with membranes over night at 4° C. After three washes with 1× TBST for 5 mM, HRP-coupled secondary antibodies diluted in 5% (w/v) BSA/TBST (Goat Anti-Rb IgG, dil. 1/10,000; Goat Anti-Mouse IgG, dil. 1/5000) were added for 1 hr at room temperature. After three washes with 1× TBST (5 minutes each), membranes were incubated with ECL reagent for 1 mM at room temperature. Chemiluminescence signals were then detected using a LAS-4000 system with default settings and signals quantified using Image Studio Lite software (version 5.2). Membrane parts previously incubated with antibody against CK1alpha were stripped off antibodies by incubating with stripping buffer for 30 minutes followed by three washed with TBST (5 mM each), blocking with 5% (w/v) skim milk for 1 hr, and incubation with primary antibody against GAPDH overnight at 4° C. Subsequent washes, incubation with secondary antibody and signal acquisition were performed as described above.
(§3) Table 5 assigns each compound a code indicating the ability for the degradation of IKZF1, IKZF3, CK1alpha and ZFP91: A, B, C, D, E or F. According to the code, A represents a no degradation observed at 30 μM, B represents trace degradation at 30 μM (below 20%), C represents weak degradation at 30 μM (below 50%), D represents degradation at 30 μM (>90%), E represents degradation at 3 μM (>90%) and F represents degradation at 0.3 μM (>90%).

T2 sequence (Q96SW2 whole entry partner): as the sequence (Q96SW2 whole entry) above
T2 sequence (Q16531 2-1140 partner limits assumed): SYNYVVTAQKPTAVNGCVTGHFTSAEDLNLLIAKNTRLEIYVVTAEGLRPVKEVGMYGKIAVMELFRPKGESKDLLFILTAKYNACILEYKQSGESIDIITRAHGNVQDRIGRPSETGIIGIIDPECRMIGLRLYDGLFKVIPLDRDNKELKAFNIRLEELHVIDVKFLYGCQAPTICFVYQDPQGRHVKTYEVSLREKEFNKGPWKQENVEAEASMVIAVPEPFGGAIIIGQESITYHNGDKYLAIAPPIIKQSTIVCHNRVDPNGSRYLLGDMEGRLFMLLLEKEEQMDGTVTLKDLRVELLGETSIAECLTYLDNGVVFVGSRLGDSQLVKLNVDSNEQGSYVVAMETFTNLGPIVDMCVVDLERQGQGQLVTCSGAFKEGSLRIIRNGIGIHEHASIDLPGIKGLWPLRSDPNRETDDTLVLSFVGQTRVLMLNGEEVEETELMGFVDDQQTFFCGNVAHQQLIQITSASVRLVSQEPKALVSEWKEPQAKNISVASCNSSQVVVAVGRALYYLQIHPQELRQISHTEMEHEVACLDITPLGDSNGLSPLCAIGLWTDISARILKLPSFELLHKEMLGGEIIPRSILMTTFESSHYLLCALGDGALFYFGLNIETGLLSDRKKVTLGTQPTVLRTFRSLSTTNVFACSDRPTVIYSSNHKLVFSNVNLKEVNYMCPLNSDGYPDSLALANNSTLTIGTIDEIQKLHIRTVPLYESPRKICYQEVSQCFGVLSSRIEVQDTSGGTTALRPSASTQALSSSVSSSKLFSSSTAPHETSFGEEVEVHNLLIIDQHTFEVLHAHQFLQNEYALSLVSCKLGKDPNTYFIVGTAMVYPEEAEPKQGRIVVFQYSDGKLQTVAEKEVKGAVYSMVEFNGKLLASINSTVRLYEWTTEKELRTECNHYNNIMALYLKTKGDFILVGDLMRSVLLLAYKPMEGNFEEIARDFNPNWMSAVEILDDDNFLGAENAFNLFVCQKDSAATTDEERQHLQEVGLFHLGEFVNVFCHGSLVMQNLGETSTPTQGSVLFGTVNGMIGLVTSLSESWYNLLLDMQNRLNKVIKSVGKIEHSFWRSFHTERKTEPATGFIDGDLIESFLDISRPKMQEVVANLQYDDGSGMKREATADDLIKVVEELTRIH
T2 sequence (Q13422 whole entry): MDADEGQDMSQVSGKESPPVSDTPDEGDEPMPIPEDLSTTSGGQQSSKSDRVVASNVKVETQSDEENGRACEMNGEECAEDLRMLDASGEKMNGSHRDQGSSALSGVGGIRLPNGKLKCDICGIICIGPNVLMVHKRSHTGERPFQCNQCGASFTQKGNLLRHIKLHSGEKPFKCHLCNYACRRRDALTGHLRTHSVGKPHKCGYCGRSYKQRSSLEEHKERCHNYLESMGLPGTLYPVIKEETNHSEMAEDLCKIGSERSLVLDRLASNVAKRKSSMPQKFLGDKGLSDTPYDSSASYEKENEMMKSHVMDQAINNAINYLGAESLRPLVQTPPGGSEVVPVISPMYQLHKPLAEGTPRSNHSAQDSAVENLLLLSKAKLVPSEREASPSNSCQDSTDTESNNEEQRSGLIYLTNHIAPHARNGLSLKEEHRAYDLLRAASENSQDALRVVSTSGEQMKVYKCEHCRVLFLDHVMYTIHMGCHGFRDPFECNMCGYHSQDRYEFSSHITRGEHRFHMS

Row | SMILES | IKZF1 degradation code
8 | Cc1cc(C)c(NC(=O)NCc2ccc3c(c2)C(=O)N(C2CCC(=O)NC2=O)C3)cc1Cl (stereo not shown) [Compound 85] | A
9 | Cc1ccc(NC(=O)NCc2ccc3c(c2)C(=O)N(C2CCC(=O)NC2=O)C3)c(Cl)c1Cl (stereo not shown) [Compound 87] | A
10 | O=C1CCC(N2Cc3ccc(CNC(=O)Nc4cccc(CN5CCOCC5)c4)cc3C2=O)C(=O)N1 (stereo not shown) [Compound 105] | B (B represents trace degradation at 30 μM (below 20%))
11 | Cc1c(Cl)cc(NC(=O)NCc2ccc3c(c2)C(=O)N(C2CCC(=O)NC2=O)C3)cc1CC1COCOC1 (stereo not shown) [Compound 132] | A
12 | Cc1c(Cl)cc(NC(=O)NCc2ccc3c(c2)C(=O)N(C2CCC(=O)NC2=O)C3)cc1CN(C)C (stereo not shown) [Compound 75] | A
13 | Cc1ccc(NC(=O)NCc2ccc3c(c2)C(=O)N(C2CCC(=O)NC2=O)C3)cc1Cl (stereo not shown) [Compound 8] | A
14 | Cc1c(Cl)cc(NC(=O)NCc2ccc3c(c2)C(=O)N(C2CCC(=O)NC2=O)C3)cc1CN1CCOCC1 (stereo not shown) [Compound 82] | A

target: T3, IKZF3 (Homo sapiens, UniProt Q9UKT9); experiment: Selectivity determination by Western Blot assay in MM1S cells: IKZF3; assay type: cell-based; parameters: key: A represents a no degradation observed at 30 μM; B represents trace degradation at 30 μM (below 20%); C represents weak degradation at 30 μM (below 50%); D represents degradation at 30 μM (>90%); E represents degradation at 3 μM (>90%); F represents degradation at 0.3 μM (>90%); conditions: MM1S cells, 0.3, 3 and 30 μM, 6 hours
T3 construct: MM1S cells were purchased from ATCC (cat. Number CRL-2974); endogenous in cells; host or cells: MM1S (ATCC CRL-2974)
Procedure: as §1, §2, §3

T3 sequence (Q96SW2 whole entry partner): as the sequence (Q96SW2 whole entry) above
T3 sequence (Q16531 2-1140 partner limits assumed): as the sequence (Q16531 2-1140 partner limits assumed) above
T3 sequence (Q9UKT9 whole entry): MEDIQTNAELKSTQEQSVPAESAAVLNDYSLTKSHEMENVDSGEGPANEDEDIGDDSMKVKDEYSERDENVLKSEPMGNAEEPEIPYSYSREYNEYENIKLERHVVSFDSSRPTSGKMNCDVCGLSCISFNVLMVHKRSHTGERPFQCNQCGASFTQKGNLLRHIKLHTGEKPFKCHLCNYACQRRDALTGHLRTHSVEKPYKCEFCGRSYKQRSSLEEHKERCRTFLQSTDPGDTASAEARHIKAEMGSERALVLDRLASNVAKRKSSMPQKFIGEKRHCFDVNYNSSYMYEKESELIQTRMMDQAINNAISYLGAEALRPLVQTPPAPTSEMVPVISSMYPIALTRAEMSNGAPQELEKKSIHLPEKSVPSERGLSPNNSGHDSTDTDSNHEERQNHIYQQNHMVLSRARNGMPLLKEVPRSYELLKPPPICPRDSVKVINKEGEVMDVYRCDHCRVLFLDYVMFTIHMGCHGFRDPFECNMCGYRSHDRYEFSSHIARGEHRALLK

Row | SMILES | IKZF3 degradation code
15 | Cc1cc(C)c(NC(=O)NCc2ccc3c(c2)C(=O)N(C2CCC(=O)NC2=O)C3)cc1Cl (stereo not shown) [Compound 85] | A
16 | Cc1ccc(NC(=O)NCc2ccc3c(c2)C(=O)N(C2CCC(=O)NC2=O)C3)c(Cl)c1Cl (stereo not shown) [Compound 87] | A
17 | O=C1CCC(N2Cc3ccc(CNC(=O)Nc4cccc(CN5CCOCC5)c4)cc3C2=O)C(=O)N1 (stereo not shown) [Compound 105] | A
18 | Cc1c(Cl)cc(NC(=O)NCc2ccc3c(c2)C(=O)N(C2CCC(=O)NC2=O)C3)cc1CC1COCOC1 (stereo not shown) [Compound 132] | A
19 | Cc1c(Cl)cc(NC(=O)NCc2ccc3c(c2)C(=O)N(C2CCC(=O)NC2=O)C3)cc1CN(C)C (stereo not shown) [Compound 75] | A
20 | Cc1ccc(NC(=O)NCc2ccc3c(c2)C(=O)N(C2CCC(=O)NC2=O)C3)cc1Cl (stereo not shown) [Compound 8] | B (B represents trace degradation at 30 μM (below 20%))
21 | Cc1c(Cl)cc(NC(=O)NCc2ccc3c(c2)C(=O)N(C2CCC(=O)NC2=O)C3)cc1CN1CCOCC1 (stereo not shown) [Compound 82] | A

target: GSPT1 (Homo sapiens, UniProt P15170+Q96SW2); experiment: Selectivity determination by Western Blot assay in MM1S cells: GSPT1; assay type: cell-based; parameters: MM1S cells were purchased from ATCC (cat. Number CRL-2974); endogenous in cells; host or cells: MM1S (ATCC CRL-2974); conditions: MM1S cells, 0.3, 3 and 30 μM, 6 hours
Procedure: [Worded in the source for another target; this target is reported under the same test.] as §1, §2, §3

GSPT1, sequence (P15170 whole entry): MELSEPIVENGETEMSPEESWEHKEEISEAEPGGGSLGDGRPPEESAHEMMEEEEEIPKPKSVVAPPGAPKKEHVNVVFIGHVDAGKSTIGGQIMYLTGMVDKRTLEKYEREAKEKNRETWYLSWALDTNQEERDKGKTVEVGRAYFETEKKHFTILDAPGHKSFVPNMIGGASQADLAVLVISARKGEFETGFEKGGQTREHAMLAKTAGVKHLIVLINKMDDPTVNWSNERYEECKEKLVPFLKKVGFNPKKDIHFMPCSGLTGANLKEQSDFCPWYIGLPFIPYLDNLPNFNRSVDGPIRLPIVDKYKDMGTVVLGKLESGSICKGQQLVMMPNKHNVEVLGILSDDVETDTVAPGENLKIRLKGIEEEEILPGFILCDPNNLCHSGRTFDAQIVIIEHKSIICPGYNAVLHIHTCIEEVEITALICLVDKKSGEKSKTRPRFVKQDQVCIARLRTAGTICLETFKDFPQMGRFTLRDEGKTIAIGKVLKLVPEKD
GSPT1, sequence (Q96SW2 whole entry): as the sequence (Q96SW2 whole entry) above
GSPT1, sequence (Q16531 2-1140 partner limits assumed): as the sequence (Q16531 2-1140 partner limits assumed) above

Row | SMILES | GSPT1 degradation code
22 | Cc1cc(C)c(NC(=O)NCc2ccc3c(c2)C(=O)N(C2CCC(=O)NC2=O)C3)cc1Cl (stereo not shown) [Compound 85] | E (E represents degradation at 3 μM (>90%))
23 | Cc1ccc(NC(=O)NCc2ccc3c(c2)C(=O)N(C2CCC(=O)NC2=O)C3)c(Cl)c1Cl (stereo not shown) [Compound 87] | E (E represents degradation at 3 μM (>90%))
24 | O=C1CCC(N2Cc3ccc(CNC(=O)Nc4cccc(CN5CCOCC5)c4)cc3C2=O)C(=O)N1 (stereo not shown) [Compound 105] | E (E represents degradation at 3 μM (>90%))
25 | Cc1c(Cl)cc(NC(=O)NCc2ccc3c(c2)C(=O)N(C2CCC(=O)NC2=O)C3)cc1CC1COCOC1 (stereo not shown) [Compound 132] | F (F represents degradation at 0.3 μM (>90%))
26 | Cc1c(Cl)cc(NC(=O)NCc2ccc3c(c2)C(=O)N(C2CCC(=O)NC2=O)C3)cc1CN(C)C (stereo not shown) [Compound 75] | E (E represents degradation at 3 μM (>90%))
27 | Cc1ccc(NC(=O)NCc2ccc3c(c2)C(=O)N(C2CCC(=O)NC2=O)C3)cc1Cl (stereo not shown) [Compound 8] | F (F represents degradation at 0.3 μM (>90%))
28 | Cc1c(Cl)cc(NC(=O)NCc2ccc3c(c2)C(=O)N(C2CCC(=O)NC2=O)C3)cc1CN1CCOCC1 (stereo not shown) [Compound 82] | F (F represents degradation at 0.3 μM (>90%))
